Measurements: patent publication US8748572B2, “RNase a peptides, fragments and uses thereof” (priority 2006, dated 2014)

Columns and labels:
[1] = system: Salmonella enterica serovar pullorum; test: bactericidal assay on natural pathogen; assay type: cell-based; details: free peptide
Excerpt: FIG. 11 is a graph showing that the domain III peptide is bactericidal for S. enterica serovar pullorum which is a natural pathogen of domestic poultry. At the highest concentration tested, 100 micromolar, RNase A-2 domain III reduces the colony count from 100-1000 fold (2-3 logs).
The bactericidal actions of the A-2 domain sequences on natural pathogens was explored. The bactericidal activity of the leukocyte RNase A-2 domain III peptide on the natural pathogen Salmonella enterica serovar pullorum was determined using the bactericidal assays as previously described. S. enterica is a gram negative pathogen isolated initially from domestic poultry and is as such a natural target pathogen for a bactericidal agent isolated from chicken granulocytes. […] At the highest concentration tested, 100 micromolar, RNase A-2 domain III reduces the colony count from 100-1000 fold (2-3 logs). Thus, the A-2 domain sequences are useful bactericidal agents against natural pathogens.
Bactericidal assays were performed as described previously with modifications. Briefly, 100 microliters from a single bacterial colony overnight culture grown in Luria-Bertani (LB) broth was diluted 1:100 in 100 mM sodium phosphate, pH 7.4, collected by centrifugation, and resuspended in 1 ml sodium phosphate, pH 7.4. […] All points were determined in triplicate.

isoelectric point = assay type: physicochemical
E. coli DH5α = test: bactericidal colony-forming assay, E. coli; assay type: cell-based, Escherichia coli; details: free synthetic peptide; for LD99: E. coli
Protocol: FIGS. 5 A & B are graphs showing the bactericidal activity of rRNases A-1 and A-2. In panel (A) E. coli DH5α and in panel (B) S. aureus 502A were re-suspended in 100 mM sodium phosphate buffer, pH 7.4, and incubated with the indicated concentrations of chicken leukocyte RNase A-1 (open squares) and A-2 (closed circles) for 4 h at 37° C., plated on RNase-free LB agar, and grown overnight for colony counts.
RNase A polypeptides and fragments according to the invention that have bactericidal activity are particularly preferred for use in the treatment methods of the invention. The bactericidal and bacteriostatic activity of a particular RNase A polypeptides or fragments can be assessed by known protocols, such as that described in the methods section and the following described protocol, herein referred to as “a standard bacterial colony formation assay.” Bactericidal assays are well-described in the art, and are performed as described previously, and as exemplified in Examples 3-6. Briefly, an aliquot from a single bacterial colony overnight culture grown in Luria-Beitani (LB) broth is diluted 1:100 in sodium phosphate, pH 7.4, collected by centrifugation, and resuspended in sodium phosphate, pH 7.4. An aliquot of bacteria in buffer are incubated for 4 hr at 37° C. with recombinant protein or peptide at concentrations indicated, or diluent control and were then diluted 10, 100, or 1000-fold prior to plating on LB agar for overnight growth for colony counts.
Next, the bactericidal activity of chicken leukocyte RNases were examined using a colony-forming assay as previously described for eosinophil cationic protein [28]. […] E. coli was more susceptible to the bactericidal activity of leukocyte rRNase A-2 than was S. aureus, as 5 μM rRNase A-2 reduced the colony count of E. coli 10^7-fold, while reducing the colony count of S. aureus, only 100-fold. Recombinant RNase A-1 had no effect on colony number of E. coli or S. aureus concentrations up to and including […].
Bactericidal assays were performed as described previously with modifications. Briefly, 100 microliters from a single bacterial colony overnight culture grown in Luria-Bertani (LB) broth was diluted 1:100 in 100 mM sodium phosphate, pH 7.4, collected by centrifugation, and resuspended in 1 ml sodium phosphate, pH 7.4. Ten microliters of bacteria in buffer are incubated for 4 hr at 37° C. with 10 microliters recombinant protein or peptide at concentrations indicated, or diluent control and were then diluted 10, 100, or 1000-fold prior to plating on LB agar for overnight growth for colony counts. All points were determined in triplicate.

[2] = system: Gallus gallus leukocyte RNases; test: RNase activity with human placental RNase inhibitor; assay type: biochemical; details: preincubation with 200 U hPRI, yeast tRNA substrate, pH 7.0
Protocol: FIGS. 4 A-D are graphs showing the ribonucleolytic activity of recombinant leukocyte RNases. (A) is a graph showing the optimum pH for RNase activity. Enzymatic activity was determined with 50 pmol rRNase A-1 (open squares) and rRNase A-2 (closed circles) that was incubated with 250 μg/ml yeast tRNA in 40 mM sodium phosphate buffer at the pHs indicated. Measurements of A260 per time were converted to pmol/s as described in reference 28 and Methods. (B) is a graph showing the initial rates for RNase activity. Enzymatic activity was determined as described in (A) with 40 mM sodium phosphate buffer, pH 7.0. (C) is a graph showing the substrate preference for RNase activity. […] A260 was measured after precipitation of undigested RNA at each of the time points indicated. […] RNase activity was measured with […] of bovine pancreatic RNase (left) or […] rRNase A-1 and rRNase A-2 (right) with 250 μg/ml of yeast tRNA as substrate with (+) or without (−) 200 U human placental RNase inhibitor (hPR1) in 40 mM sodium phosphate buffer, pH 7.0. […]
The ribonuclease (RNase) assay with yeast tRNA substrate has been described in detail elsewhere. […] In experiments in which the pH optimum was to be determined, 40 mM sodium phosphate buffers of pH 5.0, 5.5, 6.0, 6.5, 7.4 or 8.0 were used instead of the buffer of pH 7.0. […]

## RYSGNQFNRRVRVGCRG [A-2 domain III peptide]
[1]
  bactericidal activity (in words): bactericidal
Isoelectric point
  isoelectric point (pI): 12.3
E. coli DH5α
  bactericidal activity of free peptide against E. coli (in words): active
  LD99: 10 µM

## SYTGNQFNHRVRVGCWG [A-1 domain III]
Isoelectric point
  isoelectric point (pI): 9.9
E. coli DH5α
  bactericidal activity of free peptide against E. coli (in words): no significant activity

## TTRRHFRIT [A-2 domain II peptide]
Isoelectric point
  isoelectric point (pI): 12.8
E. coli DH5α
  bactericidal activity of free peptide against E. coli (in words): reduced colony count of E. coli in a dose-dependent manner
  LD99: 200 µM

## TRIRTRFHT [scrambled domain II peptide]
E. coli DH5α
  bactericidal activity of free peptide against E. coli (in words): reduced the colony count of E. coli to the same degree as the wild type A-2 domain II peptide

B1: hPRI: human placental RNase inhibitor (Boehringer Mannheim) (protein)
chain: SLDIQSLDIQCEELSDARWAELLPLLQQCQVVRLDDCGLTEARCKDISSALRVNPALAELNLRSNELGDVGVHCVLQGLQTPSCKIQKLSLQNCCLTGAGCGVLSSTLRTLPTLQELHLSDNLLGDAGLQLLCEGLLDPQCRLEKLQLEYCSLSAASCEPLASVLRAKPDFKELTVSNNDINEAGVRVLCQGLKDSPCQLEALKLESCGVTSDNCRDLCGIVASKASLRELALGSNKLGDVGMAELCPGLLHPSSRLRTLWIWECGITAKGCGDLCRVLRAKESLKELSLAGNELGDEGARLLCETLLEPGCQLESLWVKSCSFTAACCSHFSSVLAQNRFLLELQISNNRLEDAGVRELCQGLGQPGSVLRVLWLADCDVSDSSCSSLAATLLANHSLRELDLSNNCLGDAGILQLVESVRQPGCLLEQLVLYDIYWSEEMEDRLQALEKDKPSLRVIS
[2]
  inhibition of RNase activity: completely inhibited
